Laboratory results as given in publication PMC6628362, “A New Strategy for Glioblastoma Treatment: In Vitro and In Vivo Preclinical Characterization of Si306, a Pyrazolo[3,4-d]Pyrimidine Dual Src/P-Glycoprotein Inhibitor” (Cancers, 2019).

Key:
U87 = test: MTT cell growth inhibition, U87; format: cell-based, Human; conditions: 72 h, n = 3
Protocol: Human GBM cell lines U87 and LN-229 were purchased from the American Type Culture Collection, Rockville, MD, USA. U87-TxR cells were selected from U87 cells by continuous exposure to increasing concentrations of PTX [76]. LN-299, U87 and U87-TxR cells were grown in Minimum Essential Medium with 10% fetal bovine serum, 2 mM L-glutamine and 5000 U/mL penicillin, 5 mg/mL streptomycin solution. Cell lines were maintained at 37 °C in a humidified 5% CO2 atmosphere. They were sub-cultured at 72 h intervals using 0.25% trypsin/EDTA and 16,000 cells/cm^2 were seeded into a fresh medium.
MTT assay was used to assess the viability of U87 and U87-TxR cells (AppliChem GmbH, Taufkirchen, Germany). After reaching the confluence in 25 cm^2 tissue flasks, U87 and U87-TxR cells were trypsinized. Cells were seeded at the optimal density determined in initial experiments: 4000 cell/well into flat-bottomed 96-well tissue culture plates. Following the overnight incubation, cells were treated with Si306, pro-Si306 and dasatinib (1–25 µM) for 72 h. In addition, the combined effects of Si306 and pro-Si306 with PTX were evaluated in MDR GBM cells. To that end, two concentrations of Si306 and pro-Si306 (0.2 μM and 0.5 μM) were combined with increasing concentrations of PTX (0.1–2 μM) in simultaneous treatment. The sensitization of U87-TxR cells to PTX was studied after 72 h. Briefly, MTT was added to each well in a final concentration of 0.2 mg/mL for 4 h to induce the formation of the formazan in cells with intact/viable mitochondria. Then, produced formazan was dissolved in DMSO, and the absorbance was measured at 540 nm on a microplate reader (LKB 5060-006 Micro Plate Reader, Vienna, Austria). IC50 values were calculated by nonlinear regression analysis using GraphPad Prism 6.0 for Windows (GraphPad Software, La Jolla, CA, USA).

T98G = test: Cell viability, T98G (Table S1); format: cell-based; conditions: Homo sapiens, 72 h
Protocol: 1. Cell Growth Inhibition by Dasatinib, Si306 and Pro-Si306
GB cell lines BT138, T98G and A172 were treated with Si306 and pro-Si306 at concentrations ranging from 1 to 100 µM, or with DMSO as a control. Cell viability was evaluated 72 h after treatment for T98G and A172 cell lines and after 24 h for BT-138. In table S1 the IC50 values are reported.
Table S1. Sensitivity of glioblastoma multiforme (GBM) cells to Si306 and pro-Si306 expressed as IC50 […]
Figure S1. Rho 123 accumulation in U87-TxR cells treated with increasing concentrations of TQ (A), Dex-VER (B), Si306 (C) and pro-Si306 (D).
(1 picture or pasted object on this page, not shown here)

[1] = target: Human Serum Albumin (HSA) (Homo sapiens, UniProt P02768); test: Binding fluorimetric assay, HSA; format: in vitro ADME
Protocol: (§1) In order to determine the binding affinity for Si306 and pro-Si306 to HSA (human serum albumin) and AGP (alpha-1-acid glycoprotein), the protein fluorescence has been monitored by spectroscopy. The quantitative analysis was performed using black 96 multiwell plates: in each well, a fixed concentration of HSA or AGP (10 µM in phosphate buffer 1 mM) was added with different amounts of the tested compound (0.1 µM to 500 µM). Plates were gently shacked and after 30 min at room temperature for equilibration, spectra were recorded from 300 to 400 nm, after excitation at 295 nm, by using a Perkin Elmer EnVision Multilabel Reader 2014 spectrofluorimeter. Finally, spectra were acquired with EnVision Manager ver.1.13 software (Walthman, MA, USA). The obtained non fluorescence quenching percentages were plotted against drug concentrations and the relative KD values were calculated using GraphPad software (version 6.0).

[2] = system: Alpha-1-acid glycoprotein (AGP); test: Binding fluorimetric assay, AGP; format: in vitro ADME; conditions: 10 µM AGP, fluorescence quenching
Protocol: as §1

[3] = 10 µM HSA, fluorescence quenching

Sequence of Human Serum Albumin (HSA) (P02768 25-609): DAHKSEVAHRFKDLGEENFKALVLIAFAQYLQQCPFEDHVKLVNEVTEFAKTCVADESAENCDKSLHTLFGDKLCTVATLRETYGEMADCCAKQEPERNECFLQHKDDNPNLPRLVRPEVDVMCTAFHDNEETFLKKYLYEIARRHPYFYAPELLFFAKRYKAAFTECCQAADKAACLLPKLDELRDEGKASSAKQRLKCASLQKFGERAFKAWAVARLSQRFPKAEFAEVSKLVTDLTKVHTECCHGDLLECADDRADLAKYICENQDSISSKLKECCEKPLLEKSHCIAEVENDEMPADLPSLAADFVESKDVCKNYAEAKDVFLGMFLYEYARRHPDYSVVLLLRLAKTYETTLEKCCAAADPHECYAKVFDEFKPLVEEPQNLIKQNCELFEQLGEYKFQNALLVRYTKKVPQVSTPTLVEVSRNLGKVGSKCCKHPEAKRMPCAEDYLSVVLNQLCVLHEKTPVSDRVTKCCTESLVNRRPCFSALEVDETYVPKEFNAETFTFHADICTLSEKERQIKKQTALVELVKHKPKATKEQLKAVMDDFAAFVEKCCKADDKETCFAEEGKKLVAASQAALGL

**Q.** Which results are given for `ClC(Cn1ncc2c(Nc3cccc(Br)c3)nc(SCCN3CCOCC3)nc21)c1ccccc1` (centres unmarked) [Si306]?
**A.** IC50 (U87): 3.08 ± 0.26 µM; IC50 (U87; Homo sapiens, U-87 MG): ~3 µM; IC50 (T98G): 460 ± 20 nM; BMAX [1, 3]: 61.05 ± 2.8; Kd [1, 3]: 350 ± 100 nM; affinity for albumin, fold greater than pro-Si306 ([1]; HSA): 60 fold; BMAX [2]: 88.38 ± 1.8; Kd at 30 min ([2]; alpha-1-acid glycoprotein (10 µM) in phosphate buffer): 11.5 ± 1 µM
